Assay results from ChEMBL document CHEMBL5725825, “Inhibitors of IRAK4 activity” (2017).

Biological target: T1, Interleukin-1 receptor-associated kinase 4 (Homo sapiens, UniProt Q9NWZ3)
T1 sequence (Q9NWZ3 whole entry): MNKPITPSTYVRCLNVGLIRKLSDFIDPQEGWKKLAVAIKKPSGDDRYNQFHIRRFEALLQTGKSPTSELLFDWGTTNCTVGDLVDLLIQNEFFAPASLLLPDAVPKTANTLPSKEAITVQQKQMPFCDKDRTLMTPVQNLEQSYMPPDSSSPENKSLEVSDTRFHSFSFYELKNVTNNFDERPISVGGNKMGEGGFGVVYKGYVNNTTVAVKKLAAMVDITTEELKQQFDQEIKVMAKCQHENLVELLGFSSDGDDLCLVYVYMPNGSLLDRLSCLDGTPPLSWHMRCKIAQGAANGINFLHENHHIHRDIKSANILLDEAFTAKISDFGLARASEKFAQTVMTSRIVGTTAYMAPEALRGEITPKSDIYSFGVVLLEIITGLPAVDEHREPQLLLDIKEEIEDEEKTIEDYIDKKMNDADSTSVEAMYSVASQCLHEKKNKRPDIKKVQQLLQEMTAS
Assay: IMAP Technology: The kinase activity of IRAK4 is determined by its ability to catalyze the phosphorylation of a fluorescent polypeptide substrate. […] The reaction is initiated by the addition of ATP. After incubation for 30 minutes at 25° C., 60 μl of Progressive IMAP Reagent (Molecular Devices) is added to stop the reaction. Change in RP7030's FP is determined by a FP reader (Analyst HT, LJL BioSystems).

SMILES	IC50 [µM]
Cn1cc(NC(=O)c2cccc(-c3ccnc(NCC4CC4)c3)n2)c(C(=O)N2CCOCC2)n1	1.83
Cn1cc(NC(=O)c2cccc(-c3ccnc(NCC4CC4)c3)c2)c(C(N)=O)n1	0.184
